From patent publication US20100029636A1, “Lck inhibitors” (priority 2006, published 2010) come the findings set out here.

Each structure is given as a SMILES string.

The subject of assay [1] is blood IL-2 levels induced by SEB. The assay can be described thus: In vivo model: mouse SEB/IL-2. Details: species or system BALB/c mice. The conditions noted are these: 100 mg/kg po, serum IL-2 two hours after SEB. As to the method:
The compound to be tested is administered to BALB/c mice followed e.g. 1 h later, by an intravenous administration of 3 µg per mouse of SEB to induce a rise in blood IL-2 levels. Two hours after the administration of SEB, mice are bled, and levels of IL-2 are measured in the serum using standard methods. Under control conditions (vehicle only) IL-2 concentrations measured are mostly in the range of 2000 to 8000 pg/ml.

Assay [2] concerns the target Lck (Homo sapiens, UniProt P06239). Kind of assay: Biochemical Lck kinase assay (TR-FRET, LANCE). For orientation: Time-resolved FRET reads energy transfer from a long-lived donor to a nearby acceptor.

Lck, sequence (P06239 whole entry, species assumed): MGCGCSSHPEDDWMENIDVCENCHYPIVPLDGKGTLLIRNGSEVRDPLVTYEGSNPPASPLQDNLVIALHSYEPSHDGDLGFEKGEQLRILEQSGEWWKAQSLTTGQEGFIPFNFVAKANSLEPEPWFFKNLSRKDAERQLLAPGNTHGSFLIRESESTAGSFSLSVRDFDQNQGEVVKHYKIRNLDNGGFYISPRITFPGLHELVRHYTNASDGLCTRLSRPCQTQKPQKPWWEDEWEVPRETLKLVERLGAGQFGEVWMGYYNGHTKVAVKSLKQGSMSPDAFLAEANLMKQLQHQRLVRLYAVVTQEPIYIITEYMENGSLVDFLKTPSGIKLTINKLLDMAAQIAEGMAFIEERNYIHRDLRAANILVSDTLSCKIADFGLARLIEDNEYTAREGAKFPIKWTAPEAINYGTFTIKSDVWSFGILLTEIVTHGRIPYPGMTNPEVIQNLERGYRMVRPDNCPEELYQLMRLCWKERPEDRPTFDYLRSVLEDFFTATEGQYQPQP

One may read the IC50 as the concentration at which inhibition is half-maximal. With `CC(C)COC(=O)Nc1ccc(-c2cnc3c(-c4ccc(N5CCN(C)CC5)cc4)cnn3c2N)cc1` [Example 10, (4-{7-Amino-3-[4-(4-methyl-piperazin-1-yl)-phenyl]-pyrazolo[1,5-a]pyrimidin-6-yl}-phenyl)-carbamic acid isobutyl ester], the “inhibits the secretion of IL-2” value in assay [1] amounted to 59%. Also, inhibition in assay [2] was half-maximal at 0.01 µM (IC50).
As to `Cc1cccc(OC(=O)Nc2ccc(-c3cnc4c(-c5cccc(N6CCN(C)CC6)c5)cnn4c3N)cc2)c1C` [Example 65], the midpoint of inhibition in assay [2], the IC50, lay at 0.025 µM.
`CCc1ccc(OC(=O)Nc2ccc(-c3cnc4c(-c5cccc(N6CCN(C)CC6)c5)cnn4c3N)cc2)cc1` [Example 77] displayed an IC50 in assay [2] of 0.025 µM.
The same measure, in the same setting: to `Cc1ccc(NC(=O)Nc2ccc(-c3cnc4c(-c5cccc(N6CCN(C)CC6)c5)cnn4c3N)cc2)cc1` [Example 126] belongs 0.015 µM; to `Cc1ccc([C@H](C)NC(=O)Nc2ccc(-c3cnc4c(-c5cccc(N6CCN(C)CC6)c5)cnn4c3N)cc2)cc1` [Example 172], 0.034 µM.
